These are literature values, as cited in patent US20020119970A1, “Method for treating glaucoma IIB” (priority 2000, published 2002).

In data set [1] the test system is Rhesus monkeys. Conditions: accommodative responses to i.m. pilocarpine; result referred to co-filed application "Methods for Treating Glaucoma I".
Data set [2] concerns Aged Rhesus monkeys. The settings on record: drug treated vs. control eye; baseline and pilocarpine-stimulated conditions; result referred to co-filed application "Methods for Treating Glaucoma I".

`Cc1sc[n+](CC(=O)c2ccccc2)c1C.[Cl-]` [4,5-dimethyl-3-(2-oxoethyl-phenethyl)thiazolium chloride]: the Improvement in accommodation entry in data set [1] is reported as “Improvement in accommodation has been illustrated”. The “improvement in ophthalmologic function (fluid outflow facility)” value in data set [2] was “improvement has been illustrated”.
